Assay results as given in patent US7005537B2, “Production of esters” (ExxonMobil Chemical Patents Inc., priority 1999, dated 2006).

What was measured:
Assay type in all cases: physicochemical
Fluid solvent properties = experiment: Fluid solvent properties
Source text: One of ordinary skill in the art can readily determine the flash point of a fluid or blend (e.g., ASTM D92-78).

[1] = Stability of solvent to acid catalyst (pTSA) in acrylic solvent system, GC; conditions: for Wt. % of Solvent At One Week Decomposition Period / Wt. % of Solvent At Three Week Decomposition Period: 0.5 wt % pTSA, 50° C., nitrogen, 100 at start of test
Procedure: Acrylic solvent systems were prepared to test the stability of methyl pivalate to acid catalysts, which are commonly present in coating compositions. The formulations contained 29.9 wt % MP, 28.7 wt % pentyl acetate, 20.2 wt % n-butyl acetate, 16.1 wt % n-butyl alcohol, 3.6 wt % methyl ethyl ketone, 1.5 wt % isopropyl alcohol. 2 wt % toluene as an internal standard. The latter materials were purchased from Aldrich Chemical Co.
Para toluene sulfonic acid (pTSA) was added to the above formulation (again, pTSA was purchased from Aldrich Chemical Co.), in the amount of 0.5 wt %. The solutions were sealed and placed in an oven at 50° C. under a nitrogen atmosphere. Samples were withdrawn at intervals for testing. The content of methyl pivalate was monitored over time by gas chromatographic analysis using an HP 5890 gas chromatograph. In a parallel experiment an equal amount of tert butyl acetate was used instead of methyl pivalate. The results are shown below in Table 7 (all percentages are by weight).

Reid Vapor Pressure = experiment: Reid Vapor Pressure
Source text: The invention also includes producing a gasoline fuel containing an ester for use in internal combustion engines, wherein the ester has a Reid Vapor Pressure less than about 4 pounds per square inch. An important factor in determining a compound's ozone formation potential includes the compound's vapor pressure. Compounds with relatively high vapor pressures are more likely to volatilize into the atmosphere from open sources. Potential open sources include, for example, sources from production, distribution, storage and/or combustion of fuels containing oxygenates. The C7 to C14 esters according to the invention are expected to have low vapor pressures in comparison to MTBE and some other oxygenates. Preferably, the esters have a RVP less than about 3.5 psi. More preferably, less than about 3.0 or 2.0 psi. For example, Methyl Pivalate has a Reid Vapor Pressure of about 1.6 psi.

CC(C)=O [Acetone]
Hansen Solubility Parameter H-Bonding (Fluid solvent properties): 3.4 | Hansen Solubility Parameter Nonpolar (Fluid solvent properties): 7.6 | Hansen Solubility Parameter Polar (Fluid solvent properties): 5.1 | Hansen Solubility Parameter Total (Fluid solvent properties): 9.2 | Surface Tension (Fluid solvent properties): 22.3

CC(=O)OC(C)(C)C [t-butyl acetate, tertiary butyl acetate]
stability to acid catalysts (in words) [1]: not inert with respect to acids | Wt. % of Solvent At One Week Decomposition Period [1]: 65.9 Wt. % | Wt. % of Solvent At Three Week Decomposition Period [1]: 24.1 Wt. %

COC(=O)C(C)(C)C [Methyl Pivalate, methyl pivalate (methyl 1,1,1-trimethyl acetate)]
stability to acid catalysts (in words) [1]: more stable to acid catalysts than is t-butyl acetate | Wt. % of Solvent At One Week Decomposition Period [1]: 88.0 Wt. % | Wt. % of Solvent At Three Week Decomposition Period [1]: 65.1 Wt. % | Flash Point (Fluid solvent properties): 7 °C | Surface Tension (Fluid solvent properties): 23.8 | Reid Vapor Pressure (Reid Vapor Pressure): about 1.6 psi
